Measured values taken from patent US12628750B2, “Plant cell chromosome doubling by application of electromagnetic field” (SYNGENTA CROP PROTECTION AG, priority 2020, dated 2026).
Several values for one entry are separate records, joined by “and”; a condition that tells them apart may be missing. Equal values may be shown once.

Tests used:
[1] = tested on: haploid, diploid and interspecific hybrid embryos and seedlings; details: cited from earlier work
BMS cell culture = test: Nuclear ploidy analysis (Sysmex Ploidy Analyzer) of BMS cell suspension culture after treatment; format: cell-based
Experimental: A BMS cell culture was obtained and maintained in liquid MS media supplemented with 2 mg/L of 2,4-D as described in Green and Phillips (1975). Five to seven days after subculture, the liquid cell culture was placed in a […] gap electroporation cuvette and exposed to EMF application at a frequency of 275 kHz, intensity of 25 V/cm, for a duration of 18 hours with constant shaking at room temperature to disrupt spindle fiber formation and interfere with mitosis. For each treatment, three other tests were also setup from the same culture: (i) 1.25 mM colchicine-treatment, (ii) no treatment culture in an electroporation cuvette, and (iii) no treatment culture that remained in the incubator flask. This duration allows for DNA replication without cell division, thereby causing chromosome doubling.
To measure doubling immediately after treatment, cell culture was prepared for nuclear ploidy analysis first by protoplasting cells for 3 hours in plant protoplast digest/wash buffer (Sigma-Aldrich® D9692) containing 1% cellulase R-10 (GoldBio™ C8001.0001) and 0.1% macerozyme R-10 (GoldBio™ M8002.0001) at 25 C with shaking at 120 rpm. After protoplasting, cells were pelleted by centrifugation at 14000 rpm for 1 min in a tabletop microcentrifuge and protoplast buffer was removed with a pipette. The cells were then resuspended by pipetting in 400 μl of nuclei extraction buffer (Sysmex®, CyStain® UV Precise P Nuclei Extraction Buffer, 05-5002) and mixed with 800 μl of nuclei staining solution (Sysmex®, CyStain® UV Precise P Staining Buffer, 05-5002). The stained nuclei were then passed through a 30 μm filter (Sysmex®, Non-sterile CellTrics® Filter, Green, 04-0042-2316) into the collection cuvette, and the filter rinsed with an additional 800 μl of nuclei staining solution. The cuvette was then loaded into a Sysmex® Ploidy Analyzer (CyFlow® Ploidy Analyzer, equipped with UV LED 365 nm laser) and data obtained for the entirety of the sample. Untreated BMS cell culture typically has 2-3 ploidy peaks, consistent with the majority of cells existing in a stable ploidy state (peak 1), and a minority of cells being in the process of mitosis and containing double the standard ploidy state (peak 2). […] The increase in the proportion of cells represented in the higher level peaks (3 and 4) was associated with a decrease in cells in the lower level peaks (1 and 2), providing direct evidence that field treatment doubled the genomes of cells moving them from peaks 1 and 2 into the category of peaks 3 and 4 (Table 4). To determine whether this change in the relative proportions of cell culture ploidy levels was statistically significant, eight experimental replicates were averaged and the values compared with pairwise T-tests (Table 5 and Table 6).

[2] = tested on: transgenic tobacco (Nicotiana tabacum) BY-2 cell line; test: Phragmoplast count by confocal microscopy in synchronized GFP-tubulin BY-2 cells; format: cell-based; details: 1.25 mM colchicine; n=3; * p≤0.05 vs No EMF
Description: (§1) The transgenic tobacco (Nicotiana tabacum) BY-2 cell line was obtained from RIKEN BioResource Research Center (epd.brd.riken.jp/en/). This cell line expresses green fluorescent protein (“GFP”) fused to tobacco α-tubulin. See F. Kumagai, et al., Fate of nascent microtubules organized at the M/G1 interface, as visualized by synchronized tobacco BY02 cells stably expressing GFP-tubulin: Time-sequence observations of the reorganization of cortical microtubules in living plant cells, PLANT & CELL PHYS. 42:723-732 (2001). When viewed with a fluorescence microscope, the microtubules fluoresce and enable visualization of microtubule polymerization, including, e.g., spindle fiber and phragmoplast formation during cell division. The BY-GT16 cells were grown in modified LS media supplemented with 0.2 mg/L of 2,4-D. The cells were maintained in the dark at 27° C. on a rotary shaker at 130 rpm, with sub-culturing at 7-day intervals.
To aid visualization and increase the likelihood of observing a plurality of cells undergoing mitosis after S-phase, the BY-GT16 cells were synchronized. […]
After washing the aphidicolin from the cells, the cells were permitted to restart normal cellular processes for six hours (i.e., the cells were “released”). […] The oscilloscope monitored the sinusoidal variation of the EMF applied to the cells in the cuvette as a function of time. […]

[3] = tested on: transgenic tobacco (Nicotiana tabacum) BY-2 cell line; test: Cell viability by trypan blue staining in synchronized BY-2 cells; format: cell-based
Description: as §1
To aid visualization and increase the likelihood of observing a plurality of cells undergoing mitosis after S-phase, the BY-GT16 cells were synchronized. To do so, […] of 7-day old suspension culture was transferred into 14 mL of BY-2 media (recipes below in Example 4). To the new suspension, 14 μL aphidicolin (5 mg/mL) was added, and the suspension was incubated in the dark for 24 hours at 25° C. on a rotary shaker at 130 rpm. After incubation, the aphidicolin was removed by washing ten times with 16 mL of sterile BY-2 medium. At the end of the last wash, the cells were resuspended in 16 mL of fresh BY-2 medium and returned the washed suspension to the incubator. BY-2 cells reach maximum mitotic index after approximately eight hours. Generally, peak numbers of cells with phragmoplasts were observed approximately eleven hours after washing. Thus, the plurality of cells was reasonably synchronized.
After washing the aphidicolin from the cells, the cells were permitted to restart normal cellular processes for six hours (i.e., the cells were “released”). Next, the population of synchronized cells were prepared for placement in an EMF apparatus (FIG. 1). At that point, 775 μL of cell culture was placed into a 4 mm electroporation cuvette, which was held in place in the cavity of the apparatus using a plastic frame. The plastic frame was designed to fit inside a cavity of the apparatus and was created by 3D-printing. The frame was designed to be placed inside the cavity such that the electrodes (210 and 220) from the Amplifier (200) are able to stably contact the rigid surfaces of the metal plates (Terminals 310 and 320) defining the Cavity (300), which in this instance was configured to hold the cuvette (FIG. 1). The Function Generator (100) was connected to the amplifier and was used to control the frequency (kHz) and field intensity (effective V/cm in the cuvette) of the applied EMF. An optional Oscilloscope (400) was also attached to the positive electrode (210) at the point of contact with the metal plate (310) of the Cavity (FIG. 2). The oscilloscope monitored the sinusoidal variation of the EMF applied to the cells in the cuvette as a function of time.
For the time period between Hours 7 and 11 after mitotic release of the cells, the EMF was applied to the cells in the cuvette (for a total duration of four hours). After application, the Function Generator (100) was turned off and the cells were removed for viability staining and phragmoplast observation. The remaining cells were fixed in paraformaldehyde for later observation.
To determine at what frequency or range of frequencies the BY-2 mitotic structures would be susceptible to the effects of the EMF, frequency tests were conducted in pairs with controls. The controls included a “No Treatment” control where no EMF was applied over the course of several sessions (see “Date of Experiment” column). Since EMF is generated via application of an AC voltage, in some tests, the controls included the application of a corresponding DC voltage. […]

[4] = 1.25 mM colchicine, 18 hours, single replicates
[5] = 1.25 mM colchicine, trypan blue

## COc1cc2c(c(OC)c1OC)-c1ccc(OC)c(=O)cc1[C@@H](NC(C)=O)CC2 [Colchicine, colchicine]
[1]
  survival rate after chromosome doubling with colchicine: less than 100%
[1]; usually
  fertility after chromosome doubling with colchicine: less than 50%
BMS cell culture; [4]
  Proportion of Cells in Each Ploidy Peak (%): Peak 1: 38.88% and 11.65% and 11.29% and 27.74% and 26.54% and 19.87% and 35.15% and 33.87%
  Proportion of Cells in Each Ploidy Peak (%): Peak 2: 57.77% and 59.12% and 74.64% and 57.21% and 57.50% and 58.10% and 54.88% and 53.99%
  Proportion of Cells in Each Ploidy Peak (%): Peak 3: 3.35% and 26.77% and 13.43% and 13.56% and 15.34% and 20.30% and 8.73% and 11.35%
  Proportion of Cells in Each Ploidy Peak (%): Peak 4: 0.00% and 2.46% and 0.64% and 1.49% and 0.62% and 1.72% and 1.23% and 0.79%
BMS cell culture; average of 8 replicates
  Avg Peak1%: 25.62%
  Avg Peak2%: 59.15%
  Avg Peak3%: 14.10%
  Avg Peak4%: 1.12%
BMS cell culture; pairwise T-tests, 8 replicates
  Cells of higher genome content compared to untreated controls (flask or cuvette): significantly more cells of higher genome content
[2]
  Average Phragmoplasts (Normalized): 1.0*
[3]; 1.25 mM colchicine vs 250 and 275 kHz EMF
  Loss of viability compared to EMF treated cells: higher loss of viability
[3]; 1.25 mM colchicine, n=3
  Average Viability (Normalized): 101%
[3]; 1.25 mM colchicine, normalized to no treatment control
  Viability (Normalized to Control): 112.4% and 94.1% and 95.4%
[3]; [5]
  Dead Cells (Per 3 vertical columns): 87 and 112 and 120
  Live Cells (Per 3 vertical columns): 732 and 740 and 766
  Viability (% Live): 89.4% and 86.9% and 86.5%
